The nature of data set [1]: Solubility limit in the buffer used for activity assays. The format is physicochemical. The following applies: aqueous buffer. An excerpt: It is possible to conclude that expansion of the series towards the para position of the phenyl ring, unless carried out with small groups, is detrimental for the activity of the compounds. […] Even though the carboxylic acid group is essential for the binding to OASS[13] ^, [27] ^, [28], its scarce diffusion across biological membranes is a well-known issue[32] ^, [33]. Therefore, to preserve the key interactions with the target, we carried out the replacement of the carboxylic acid by several isosters (Scheme 2). […] This prompted us to further investigate the mechanism of inhibition of these molecules, since the residual activity at saturating concentrations is significant (about 40 − 50%, Figure 3, panel A). […] This hampers the accurate determination of the inhibition mechanism due to limitations to the range of inhibitor concentration that can be explored. However, since partial inhibition is a typical feature of allosteric inhibitors, we used a method developed by our group[24] to assess if compound 25 is able to displace a low affinity active site binder, 1-ethylcyclopropane-1,2-dicarboxylic acid, that forms a highly fluorescent complex with OASS. […] This is a strong indication that compound 25 is not able to compete for binding to the active site with 1-ethylcyclopropane-1,2-dicarboxylic acid. […]

Another data set concerns the target T1, OASS-B (Salmonella typhimurium, UniProt P29848).
T1 construct: made in house; host or cells: E. coli
T1 sequence (P29848 1-303): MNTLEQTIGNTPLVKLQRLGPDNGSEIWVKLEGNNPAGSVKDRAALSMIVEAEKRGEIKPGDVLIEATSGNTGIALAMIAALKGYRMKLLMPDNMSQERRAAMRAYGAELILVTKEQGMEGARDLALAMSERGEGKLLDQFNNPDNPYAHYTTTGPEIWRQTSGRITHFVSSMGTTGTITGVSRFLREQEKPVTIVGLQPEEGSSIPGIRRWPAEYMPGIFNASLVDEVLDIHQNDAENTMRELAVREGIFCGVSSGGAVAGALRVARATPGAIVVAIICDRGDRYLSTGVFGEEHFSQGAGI
Put plainly: Fluorescence competitive binding assay (displacement of 1-ethylcyclopropane-1,2-dicarboxylic acid). The note with it: 200 µM 1-ECP-1,2-DCA, 190-200 µM compound, 100 mM Hepes, 1% DMSO, pH 7, 20 °C. On the procedure: Ligand affinity was measured by direct fluorimetric titrations, monitoring the fluorescence emission spectrum of cofactor PLP upon excitation at 412 nm. 0.1–1 µM OASS was titrated by increasing concentrations of ligand in 100 mM HEPES pH 7.0, 1% DMSO, at 20 °C. The dependence of fluorescence emission intensity on the concentration of compound was fitted to a binding isotherm: I=I0+ΔI·[ligand]/Kd+[ligand] where, I is the fluorescence emission intensity at a given ligand concentration, I 0 is the fluorescence emission intensity in the absence of ligand, ΔI is the amplitude and K d is the dissociation constant. When the K d was lower than the concentration of the protein used in the assay, the dependence of the fluoresecnce emission intensity on ligand concentration was fitted to a quadratic equation that describes tight binding. The fluorescence competitive binding assay, described elsewhere, was used to evaluate whether compounds bind at the active site of the enzyme or to an allosteric site. […] Binding of a higher affinity compound to the active site displaces 1-ethylcyclopropane-1,2-dicarboxylic acid and leads to a decrease in the fluorescence emission intensity.
Figure 3. […] Fluorescence emission spectra upon excitation at 412 nm were collected in the absence and presence of 200 µM 1-ethylcyclopropane-1,2-dicarboxylic acid (1-ECP-1,2-DCA). […]

Another data set concerns the target T2, StOASS-A (Salmonella typhimurium, UniProt P0A1E3).
T2 construct: made in house; host or cells: E. coli
Put plainly: Steady-state enzyme activity assay, discontinuous ninhydrin cysteine determination. It counts as biochemical, Salmonella enterica serovar Typhimurium. The note with it: value in brackets in IC50 column. As to the method: (§1) StOASS-A and StOASS-B, expressed in E. coli, were purified by metal affinity chromatography as described previously. Proteins were more that 95% pure based on SDS-PAGE analysis (data not shown).
(§2) Enzyme activity under steady-state conditions was measured by a discontinuous method as described previously. Briefly, the reaction was carried out in 100 mM HEPES pH 7.0 in the presence of 6 nM OASS, 60 nM BSA to prevent enzyme adhesion to tube wall, 1 mM OAS (equal to the K m value of this subsrate), 0.6 mM Na2S (a saturating concentration), 1% DMSO and variable concentrations of inhibitor. Reaction was stopped at time intervals by the addition of acetic acid and concentration of cysteine was determined by a modification of the ninhydrin assay. The fractional velocity as a function of inhibitor concentration was determined and IC50 was calculated by the following equation: vi/v0=1/1+(I/IC50) where, v 0 is the reaction velocity in the absence of inhibitor and v i is reaction velocity in the presence of inhibitor at concentration [I].
(§3) For a competitive inhibitor against OAS the IC50 measured under these conditions is about 2⋅K d.

In data set [2] the target is T3, StOASS-B (Salmonella typhimurium, UniProt P29848).
T3 construct: made in house; host or cells: E. coli
T3 sequence (P29848 1-303): T1 sequence (P29848 1-303)
The description is as above. The format is biochemical. The note with it: value in brackets in IC50 column. On the procedure: as §1, §2, §3

In data set [3] the target is T3, StOASS-B. On the set-up: method as in PMID 28821763. The following applies: low affinity active site binder; read-out: Kd for OASS-B; cited from earlier work.
The test system of data set [4] is Escherichia coli ATCC25922. As to the kind of experiment: Minimal inhibitory concentration (CLSI) in medium with limiting cysteine. The format is cell-based. The note with it: E. coli ATCC25922, medium with limiting cysteine; data not shown. On the procedure:
Minimal inhibitory concentration assays were performed according to the CLSI guidelines (Clinical and Laboratory Standards Institute; Performance Standards for Antimicrobial Susceptibility Testing; Twenty-Fourth Informational Supplement; CLSI document M100-S24, CLSI; 2014.). The compounds were dissolved in DMSO to obtain a stock solution 100-fold more concentrated than the desired higher concentration and then 10 serial dilutions were performed. One microliter of each dilution was transferred to the microtiter plate.
Escherichia coli ATCC25922 was grown until log phase on liquid Mueller–Hinton broth at 37 °C in a shaker at 225 rpm. Bacterial suspension was then centrifuged at 2500 rpm for 15 min and diluted with phosphate buffer to obtain a solution with a turbidity of about 0.5 McFarland. Bacterial suspension was further diluted (1:100) with fresh LB 20%. Fifty microliters of the bacterial suspension containing 10^6 CFU/mL were inoculated into each well, to obtain a final concentration of 5 × 10^5 CFU/mL. Each plate contained growth control wells and sterility check wells.
We investigated the ability of the new set of compounds to interfere with bacterial growth.

In brackets after ≈: the same amount, converted by molar mass. Entries after “also recorded” stand apart in the source; their conditions may differ.

T2 sequence (P0A1E3 whole entry): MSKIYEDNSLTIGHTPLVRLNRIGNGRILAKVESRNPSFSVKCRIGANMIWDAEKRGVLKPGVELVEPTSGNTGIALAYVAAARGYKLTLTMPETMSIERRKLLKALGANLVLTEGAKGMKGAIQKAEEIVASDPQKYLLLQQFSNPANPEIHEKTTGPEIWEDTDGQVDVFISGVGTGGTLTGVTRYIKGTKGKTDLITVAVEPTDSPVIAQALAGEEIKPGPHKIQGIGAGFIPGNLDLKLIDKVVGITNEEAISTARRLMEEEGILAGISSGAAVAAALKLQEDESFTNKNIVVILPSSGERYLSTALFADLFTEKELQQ

`Cc1ccc(C[C@]2(NS(=O)(=O)c3ccc(C)cc3)C[C@H]2c2ccccc2)cc1` [Compound 25, (1R,2S)-4-methyl-N-(1-(4-methylbenzyl)-2-phenylcyclopropyl)benzenesulfonamide] registered a solubility in data set [1] of around 50 µM (≈ 19.6 µg/mL). The “Displacement of 1-ethylcyclopropane-1,2-dicarboxylic acid from OASS-B” value at OASS-B was “unable to displace the compound up to an equimolar concentration of about 200 μM; also recorded: does not change the emission spectrum”. Also, the “OASS-A percent inhibition measured at saturation of inhibitor or at the highest inhibitor concentration allowed by solubility” value at StOASS-A was 39%. In addition, the “OASS-B percent inhibition measured at saturation of inhibitor or at the highest inhibitor concentration allowed by solubility” value on StOASS-B [2] was determined as 35%.
Take `CCC1(C(=O)O)CC1C(=O)O` (stereo not drawn) [1-ethylcyclopropane-1,2-dicarboxylic acid]: on StOASS-B [3], the Kd is 170 µM.
With `Cc1ccc(C[C@]2(NS(C)(=O)=O)C[C@H]2c2ccccc2)cc1` [Compound 24, (1R,2S)-1-N-(1-(4-methylbenzyl)-2-phenylcyclopropyl)methanesulfonamide], in data set [4], the “Interference with bacterial growth (MIC)” value was “none of the synthesised compounds was able to interfere significantly with bacterial growth”. The solubility in data set [1] was around 250 µM (≈ 78.9 µg/mL). Besides, at StOASS-A, the “OASS-A percent inhibition measured at saturation of inhibitor or at the highest inhibitor concentration allowed by solubility” value is on record as 45%. Further, the “OASS-B percent inhibition measured at saturation of inhibitor or at the highest inhibitor concentration allowed by solubility” value on StOASS-B [2] was 50%.

Values taken from article PMC6217552, “Refining the structure−activity relationships of 2-phenylcyclopropane carboxylic acids as inhibitors of O-acetylserine sulfhydrylase isoforms” (Journal of Enzyme Inhibition and Medicinal Chemistry, 2018).
